Test results taken from patent publication US20060276537A1, “Use of ladostigil for the treatment of multiple sclerosis” (priority 2005, published 2006).

Tested on: chronic progressive EAE induced by pMOG35-55 in C57BL/6 mice
Test: MOG-induced chronic progressive EAE in C57BL/6 mice, clinical scoring
Type: in vivo
Details: gavage once daily from day 0; for % Inhibition: vs control group mean score
Experimental: MOG (Myelin oligodendrocyte glycoprotein) is a member of the immunoglobulin superfamily expressed exclusively in CNS myelin. It is one of the most encephalitogenic proteins and is widely used to induce EAE in different rodent strains. In C57BL/6 mice, immunization with the MOG peptide pMOG35-55 in CFA induces chronic progressive EAE. Ladostigil was tested in this model in order to assess its ability to inhibit the disease.
EAE was induced by subcutaneous injection of encephalitogenic emulsion at a volume of 0.2 ml/mouse in the right flank. On the day of induction, pertussis toxin was injected intraperitoneally at a volume dose of 0.2 ml/mouse. The injection of the pertussis toxin was repeated after 48 hours. At the end of the experiment, 6-7 brains from control and the ladostigil groups were dissected and frozen at −70° C. for CHE (cholinesterase) determination and 6-7 brains were dissected and frozen for MAO (monoamine oxidase) determination. Before sacrifice, blood for ChE determination was taken on heparine, hemolysed 1/20 in 10 mM cold phosphate buffer pH=6.0 and stored at −70° C. until the assay.
90 female C57Bl/6 mice 8-10 weeks old obtained from Harlan animal breeding center were used in the study. Mice were allocated randomly into 6 groups:
Both compounds were administered by gavage once daily during the whole experiment (30 days) at a volume of 0.2 ml/mouse.
The mice were observed daily from the 10th day post-EAE induction and the EAE clinical signs were scored. The scores were recorded on observation cards according to the grades described in Table 5:
The number of sick animals (animals with a score of ≧1 at any point) in each group was summed.
The incidence of disease and the % activity were calculated as follows: [formula] [formula] [formula]
The maximal scores of all mice in each group were summed.
The mean maximal score and the % activity of the group were calculated as follows: [formula] [formula] [formula]
The individual scores (IMS) of each of the mice during the observation period were summed (score 6 will be counted forward).
The GMS of the group and its % activity were calculated as follows: [formula] [formula] [formula]
Their dates of onset were calculated as day of termination +1.

C#CCN[C@@H]1CCc2ccc(OC(=O)N(C)CC)cc21 [Ladostigil, R(+)-6-(N-methyl,N-ethyl-carbamoyloxy)-N′-propargyl-1-aminoindan]
Group Mean Score (ladostigil salt 10.2 mg/kg): 2.75 ± 1.3 | Incidence (ladostigil salt 10.2 mg/kg): 15/15 | Mean Maximal Score (ladostigil salt 10.2 mg/kg): 4.33 ± 1.1 | Mean Onset (ladostigil salt 10.2 mg/kg): 12.0 ± 2.4 days | Mortality (ladostigil salt 10.2 mg/kg): 2/15 | % Inhibition (ladostigil salt 10.2 mg/kg): 9.5% | Group Mean Score (ladostigil salt 25.5 mg/kg): 3.08 ± 1.4 | Incidence (ladostigil salt 25.5 mg/kg): 15/15 | Mean Disease Duration (ladostigil salt 25.5 mg/kg): 35.3 ± 8.8 days | Mean Maximal Score (ladostigil salt 25.5 mg/kg): 4.33 ± 1.0 | Mean Onset (ladostigil salt 25.5 mg/kg): 11.6 ± 2.1 days | Mortality (ladostigil salt 25.5 mg/kg): 3/15 | % Inhibition (ladostigil salt 25.5 mg/kg): −1.3% | Group Mean Score (ladostigil salt 51 mg/kg): 2.26 ± 1.1 | Incidence (ladostigil salt 51 mg/kg): 15/15 | Mean Disease Duration (ladostigil salt 51 mg/kg): 31.3 ± 13.2 days | Mean Maximal Score (ladostigil salt 51 mg/kg): 3.83 ± 1.1 | Mean Onset (ladostigil salt 51 mg/kg): 11.4 ± 3.1 days | Mortality (ladostigil salt 51 mg/kg): 1/15 | % Inhibition (ladostigil salt 51 mg/kg): 25.7% | Incidence (ladostigil salt 70.1 mg/kg): 15/15 | Mean Maximal Score (ladostigil salt 70.1 mg/kg): 3.73 ± 1.0 | Mean Onset (ladostigil salt 70.1 mg/kg): 11.6 ± 2.3 days | Mortality (ladostigil salt 70.1 mg/kg): 1/15 | % Inhibition (ladostigil salt 70.1 mg/kg): 33.2%
